# Measured values as given in patent US11963961B2, “Combination therapy comprising an ACC inhibitor” (Gilead Sciences, Inc., priority 2017, dated 2024).
# Read-outs that look alike come from different tables or passages of the source.
# How the values were obtained:
# [1] = test system: subjects with steatosis and F1-F3 fibrosis / NASH; details: Compound 1 20 mg; for ≥30% reduction in MRI-PDFF, % of subjects: 12 weeks
# Method: Ten subjects with steatosis (MRI-PDFF≥10%) and F1-F3 fibrosis (MRE≥2.88 kPa but non-cirrhotic based on FibroText <0.75, historical imaging and liver biopsy) were treated 20 mg Compound 1 for 12 weeks.
# Four of the ten subjects were on fish oil or fenofibrate at baseline and continued the concomitant medication for the duration of the study. Throughout the study subjects were monitored for safety (adverse events, laboratory abnormalities), liver biochemistry, serum markers of fibrosis (ELF and its components TIMP-1, hyaluronic acid, PIII-NP) and cell death (CK18 M30 and M65), liver stiffness (MRE) and fat (MRI-PDFF) and the effect on de novo lipogensis was assessed using heavy water labeling.
# The four subjects were analyzed in conjunction with eight subjects from the study described in Example 1. These twelve subjects were on fish oil or fibrates for at least six weeks of the study and included those who were on fish oil or fibrates at baseline or who had graded hypertriglyceridemia and were given fish oil or fibrates during the study.
# [2] = test system: non-cirrhotic subjects with NASH; experiment: Phase 2 randomized placebo-controlled trial of Compound 1 in NASH: imaging, liver biochemistry, serum fibrosis markers, tolerability; type: in vivo, human; details: for Liver stiffness by FibroScan, median relative change from baseline: W12, n = 40; for Hyaluronic acid, median relative change from baseline / PIII-NP, median relative change from baseline / TIMP-1, median relative change from baseline: W12, serum
# Method: Methods: In this double-blind, placebo-controlled trial, 126 non-cirrhotic subjects with NASH diagnosed noninvasively by MRI proton density fat fraction (PDFF) ≥8% and liver stiffness ≥2.5 kPa by MR elastography (MRE), or historical liver biopsy consistent with NASH and stage 1 to 3 fibrosis, were randomized 2:2:1 to receive Compound 1 20 mg, Compound 1 5 mg, or placebo orally QD for 12 weeks ([…]). Centrally-read MRI-PDFF and MRE, and FibroScan and serum markers of fibrosis were measured at baseline and […]. In some subjects, liver stiffness and hepatic fat content by Controlled Attenuation Parameter (CAP) were assessed using transient elastography (FibroScan®; Echosens, Paris, France) at baseline (i.e. week 0) and week 12.
# [3] = split by fibrate/fish oil for > 6 weeks: without n = 47, with n = 12
# [4] = Compound 1 5 mg orally QD, W12, n = 47
# [5] = Compound 1 20 mg orally QD, W12, n = 46
# [6] = Compound 1 20 mg, 5 mg, placebo, W12
structure (smiles),measurement,setting,value
"COc1ccccc1[C@H](Cn1c(=O)n(C(C)(C)C(=O)O)c(=O)c2c(C)c(-c3ncco3)sc21)OC1CCOCC1 [Compound 1, (R)-2-(1-(2-(2-methoxyphenyl)-2-((tetrahydro-2H-pyran-4-yl)oxy)ethyl)-5-methyl-6-(oxazol-2-yl)-2,4-dioxo-1,2-dihydrothieno[2,3-d]pyrimidin-3(4H)-yl)-2-methylpropanoic acid]","≥30% reduction in MRI-PDFF, % of subjects",[1]; all subjects (n = 59),49%
same,"≥30% reduction in MRI-PDFF, % of subjects",[1]; [3],43%
same,"ALT, median relative change over 12 weeks",[1]; all subjects (n = 59),−21.9%
same,"ELF, median relative change over 12 weeks",[1]; all subjects (n = 59),−0.8%
same,"Fasting Glucose, median relative change over 12 weeks",[1]; all subjects (n = 59),−2.0%
same,"Hemoglobin A1c, median relative change over 12 weeks",[1]; all subjects (n = 59),−1.4%
same,"Hyaluronic acid, median relative change over 12 weeks",[1]; all subjects (n = 59),−5.9%
same,"MRE, median relative change over 12 weeks",[1]; all subjects (n = 59),−6.6%
same,"MRI-PDFF, median relative change over 12 weeks",[1]; all subjects (n = 59),−31.0%
same,"PIII-NP, median relative change over 12 weeks",[1]; all subjects (n = 59),−13.9%
same,"TIMP-1, median relative change over 12 weeks",[1]; all subjects (n = 59),−8.8%
same,"FibroScan, median relative change over 12 weeks","[1]; all subjects, only Phase 2 study of Example 1",−11.1%
same,"ALT, median relative change over 12 weeks",[1]; [3],−19.4%
same,"ELF, median relative change over 12 weeks",[1]; [3],−0.35%
same,"Fasting Glucose, median relative change over 12 weeks",[1]; [3],−1.9%
same,"Hemoglobin A1c, median relative change over 12 weeks",[1]; [3],−1.4%
same,"Hyaluronic acid, median relative change over 12 weeks",[1]; [3],−4.5%
same,"MRE, median relative change over 12 weeks",[1]; [3],−3.2%
same,"MRI-PDFF, median relative change over 12 weeks",[1]; [3],−27.9%
same,"PIII-NP, median relative change over 12 weeks",[1]; [3],−13.9%
same,"TIMP-1, median relative change over 12 weeks",[1]; [3],−7.85%
same,"FibroScan, median relative change over 12 weeks","[1]; split by fibrate/fish oil for > 6 weeks, only Phase 2 study of Example 1, n = 6 with fibrate/fish oil",−9.8%
same,"ALT, median relative change from baseline","[2]; Compound 1 5 mg orally QD, W12",−9.8%
same,"≥30% reduction in MRI-PDFF, % of subjects","[2]; Compound 1 5 mg orally QD, W12 (11/47)",23%
same,"≥15% reduction in MRE-stiffness, % of subjects","[2]; Compound 1 5 mg orally QD, W12 (19/47)",40%
same,"Liver stiffness by FibroScan, median relative change from baseline",[2]; Compound 1 5 mg orally QD,−8.4%
same,"MRE-stiffness, median relative change from baseline",[2]; [4],−9.6%
same,"MRI-PDFF, median relative change from baseline",[2]; [4],−13.0%
same,"Hyaluronic acid, median relative change from baseline",[2]; Compound 1 5 mg orally QD,−0.7%
same,"PIII-NP, median relative change from baseline",[2]; Compound 1 5 mg orally QD,−7.0%
same,"TIMP-1, median relative change from baseline",[2]; Compound 1 5 mg orally QD,−2.9%
same,"MRI-PDFF, differences from placebo","[2]; Compound 1 5 mg, W12",not statistically significant
same,"Median alkaline phosphatase, change","[2]; Compound 1 5 mg, W12",unchanged
same,Hepatic steatosis by CAP (Controlled Attenuation Parameter),"[2]; Compound 1 20 mg and 5 mg, week 12, differences not statistically significant",Dose-dependent reductions
same,Tolerability,"[2]; Compound 1 20 mg or 5 mg QD, 12 weeks",generally well-tolerated
same,"ALT, median relative change from baseline","[2]; Compound 1 20 mg orally QD, W12",−20.5%
same,"≥15% reduction in MRE-stiffness, % of subjects","[2]; Compound 1 20 mg orally QD, W12 (15/46)",33%
same,"≥30% reduction in MRI-PDFF, % of subjects","[2]; Compound 1 20 mg orally QD, W12 (22/46)",48%
same,"Liver stiffness by FibroScan, median relative change from baseline",[2]; Compound 1 20 mg orally QD,−11.1%
same,"MRE-stiffness, median relative change from baseline",[2]; [5],−5.5%
same,"MRI-PDFF, median relative change from baseline",[2]; [5],−28.9%
same,"Hyaluronic acid, median relative change from baseline",[2]; Compound 1 20 mg orally QD,−6.9%
same,"PIII-NP, median relative change from baseline",[2]; Compound 1 20 mg orally QD,−13.9%
same,"TIMP-1, median relative change from baseline",[2]; Compound 1 20 mg orally QD,−7.9%
same,"Liver stiffness by FibroScan, M probe, change from baseline to week 12 between treatment groups","[2]; Compound 1 20 mg, 5 mg, placebo",no differences
same,Changes in liver stiffness by MRE,[2]; [6],did not differ between groups
same,Changes in other liver biochemistry tests and the composite ELF score among the treatment groups,[2]; [6],not significantly different
same,MRI-PDFF compared with placebo,"[2]; Compound 1 20 mg, W12",statistically and clinically significant decrease
same,Serum levels of TIMP-1,"[2]; Compound 1 20 mg, W12, p=0.022 vs placebo",significant reductions
same,"Median alkaline phosphatase, increase","[2]; Compound 1 20 mg, W12, p≤0.001 vs placebo",9%
